Experimental findings from ChEMBL document CHEMBL1201862, “PubChem BioAssay data set” (2004) are described below.

The structures appear in SMILES notation.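 Following 48 hours of exposure in 96-well plates, responses at five concentrations were used to interpolate endpoints linearly. At the GI50, growth is halved.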 Activity calls are given as the source filed them. No stated cut-off is given here; in the data, active = GI50 up to about 1.1 µM and inactive = higher. Bounds are passed on as bounds.

Test systems include EKVX; SK-MEL-5; OVCAR-3; OVCAR-4; UACC-257; NCI/ADR-RES; COLO 205; SF-539; HOP-62; HL-60; DU-145; A498; K562; HOP-92; NCI-H226; MDA-MB-435; A549; OVCAR-5; HCT-116; NCI-H522.
Common to all, as to test: inhibition of tumour cell growth, NCI panel, 48 h

Take `N=C1N(c2ccccc2)C(=S)/C(=N/c2ccccc2)N1c1ccccc1`: the GI50 in the test on EKVX was 21.1 µM (inactive); in the test with SK-MEL-5, 2.38 µM (inactive); in the test on OVCAR-3 it was 2.28 µM (inactive); in the test on OVCAR-4 it was 12.7 µM (inactive); in the test with UACC-257 it was 2.55 µM (inactive); with NCI/ADR-RES, 18.4 µM (inactive). Moreover, the GI50 in the test with COLO 205 is 3.3 µM (inactive); in the test with SF-539, 12.4 µM (inactive); in the test on HOP-62, 19.3 µM (inactive); in the test on HL-60, 3.12 µM (inactive); in the test on DU-145, 17.4 µM (inactive); in the test on A498 it was 17.7 µM (inactive). In addition, the GI50 is 2.45 µM (inactive) with K562; 9.48 µM (inactive) in the test on HOP-92; 20.2 µM (inactive) in the test on NCI-H226; 1.92 µM (inactive) in the test on MDA-MB-435; 19.7 µM (inactive) with A549; 15.6 µM (inactive) in the test with OVCAR-5. Also, the GI50 was 2.53 µM (inactive) in the test on HCT-116 and 2.81 µM (inactive) in the test on NCI-H522.

As for `Cc1ccc(Nc2nc(=S)[nH]c3[nH]ncc23)cc1`, the GI50 in the test with EKVX was > 100 µM (inactive); with SK-MEL-5, 37.6 µM (inactive); with OVCAR-3 it was 50.4 µM (inactive); with OVCAR-4, 90.4 µM (inactive); in the test with UACC-257 it was 84.5 µM (inactive); in the test on NCI/ADR-RES, > 100 µM (inactive). The GI50 with COLO 205 is 39.5 µM (inactive); with SF-539 it was 65.8 µM (inactive); with HOP-62, > 100 µM (inactive); with HL-60, 48.8 µM (inactive); with DU-145 it was 85.5 µM (inactive); in the test with A498, 37 µM (inactive). Further, the GI50 in the test on K562 was 49 µM (inactive); with HOP-92 it was > 100 µM (inactive); with NCI-H226, > 100 µM (inactive); in the test on MDA-MB-435, 39.8 µM (inactive); in the test with A549 it was 61.2 µM (inactive); with OVCAR-5, > 100 µM (inactive). The GI50 was 91.2 µM (inactive) in the test with HCT-116 and 32.2 µM (inactive) in the test on NCI-H522.

For `CCSc1c2cc(OC)ccc2nc2ccc(OC)cc12`, the GI50 was 9.84 µM (inactive) in the test on EKVX; 6.65 µM (inactive) in the test on SK-MEL-5; 16.9 µM (inactive) with OVCAR-3; 11.7 µM (inactive) in the test with OVCAR-4; 9.98 µM (inactive) in the test on UACC-257; 12.1 µM (inactive) with NCI/ADR-RES. For the same compound, the GI50 with COLO 205 is 7.26 µM (inactive); with SF-539, 15.3 µM (inactive); in the test with HOP-62 it was 19.1 µM (inactive); with HL-60 it was 2.62 µM (inactive); in the test with DU-145, 18.2 µM (inactive); with A498, 9.4 µM (inactive). For the same compound, the GI50 was 5.74 µM (inactive) in the test with K562; > 60.8 µM (inactive) in the test on HOP-92; 11.9 µM (inactive) in the test on NCI-H226; 5.13 µM (inactive) in the test on MDA-MB-435; 25.6 µM (inactive) with A549; 8.09 µM (inactive) in the test with OVCAR-5. Moreover, the GI50 in the test on HCT-116 was 6.05 µM (inactive); in the test with NCI-H522, 9.33 µM (inactive).

On to `Cc1ccc2c(c1)Nc1ccccc1P2(=O)O`, for which the GI50 in the test with EKVX, with SK-MEL-5, in the test on OVCAR-3, in the test on OVCAR-4, with UACC-257 and in the test with NCI/ADR-RES was > 100 µM (inactive) each time. Further, the GI50 with COLO 205, with SF-539, with HOP-62, with HL-60, with DU-145 and with A498 was > 100 µM (inactive) in each case. Also, the GI50 in the test on K562, in the test with HOP-92, with NCI-H226, in the test on MDA-MB-435, in the test with A549 and in the test on OVCAR-5 was > 100 µM (inactive) each time. For the same compound, the GI50 in the test on HCT-116 and with NCI-H522 was > 100 µM (inactive) throughout.

For the compound `O=C(Nc1ccc2c(c1)oc(=O)c1ccccc12)C(Cl)Cl`, the GI50 in the test with EKVX was 85.5 µM (inactive); in the test on SK-MEL-5, > 100 µM (inactive); in the test on OVCAR-3, 28.8 µM (inactive); in the test with OVCAR-4, > 10 µM (inactive); in the test on UACC-257 it was > 100 µM (inactive); in the test on NCI/ADR-RES, > 100 µM (inactive). For the same compound, the GI50 in the test on COLO 205 is 66.2 µM (inactive); in the test on SF-539, 69.7 µM (inactive); in the test with HOP-62, 62.1 µM (inactive); with HL-60 it was 12.2 µM (inactive); with DU-145 it was > 100 µM (inactive); in the test on A498 it was > 100 µM (inactive). The GI50 is 51.2 µM (inactive) in the test on K562; > 100 µM (inactive) with HOP-92; > 100 µM (inactive) in the test on NCI-H226; > 100 µM (inactive) in the test with MDA-MB-435; 39.1 µM (inactive) in the test on A549; > 100 µM (inactive) in the test on OVCAR-5. Also, the GI50 in the test with HCT-116 is 69.3 µM (inactive); in the test with NCI-H522, > 100 µM (inactive).

As to `CCCCCCCCCCCCCCCCCCOP(=O)([O-])OC1CC[N+](C)(C)CC1` [PERIFOSINE], the GI50 is 11.3 µM (inactive) in the test on EKVX; 15.8 µM (inactive) in the test on SK-MEL-5; 13.2 µM (inactive) in the test on OVCAR-3; > 9.95 µM (inactive) with OVCAR-4; 19.8 µM (inactive) in the test with UACC-257; 14 µM (inactive) in the test with NCI/ADR-RES. In addition, the GI50 in the test with COLO 205 is 3.24 µM (inactive); in the test with SF-539, 15.6 µM (inactive); in the test on HOP-62 it was 7.53 µM (inactive); in the test on HL-60, 1.19 µM (inactive); in the test with DU-145 it was 16.9 µM (inactive); with A498 it was 3.22 µM (inactive). In addition, the GI50 with K562 was 16.4 µM (inactive); in the test on HOP-92, 3.38 µM (inactive); in the test on NCI-H226, 11.2 µM (inactive); in the test with MDA-MB-435, 14.7 µM (inactive); in the test on A549 it was 10.7 µM (inactive); in the test on OVCAR-5, 2.52 µM (inactive). Besides, the figures for the GI50 with HCT-116 and in the test with NCI-H522 were 7.94 µM (inactive) and 2.97 µM (inactive), respectively.

In the case of `C[N+](C)(C)CC1CCc2ccccc2C1=O` (stereo not given), the GI50 in the test on EKVX is 7.76 µM (inactive); in the test with SK-MEL-5, 16.2 µM (inactive); in the test on OVCAR-3 it was 4.49 µM (inactive); with OVCAR-4 it was 4.75 µM (inactive); in the test with UACC-257, 12.2 µM (inactive); with NCI/ADR-RES, 10.6 µM (inactive). Moreover, the GI50 in the test on COLO 205 is 7.55 µM (inactive); in the test on SF-539, 15.8 µM (inactive); in the test with HOP-62, 26.4 µM (inactive); with HL-60, 2.52 µM (inactive); with DU-145, 18.6 µM (inactive); in the test with A498, 26.2 µM (inactive). Further, the GI50 with K562 is 1.79 µM (inactive); with HOP-92, 7.35 µM (inactive); in the test on NCI-H226, 24.2 µM (inactive); in the test with MDA-MB-435, 5.62 µM (inactive); in the test on A549 it was 26.3 µM (inactive); in the test on OVCAR-5 it was 16.1 µM (inactive). Moreover, the GI50 in the test with HCT-116 is 5.55 µM (inactive); with NCI-H522, 0.0809 µM (active).
